{"source": "patent US10258602B2", "about": "(Ocera Therapeutics, Inc., priority 2007, dated 2019)"}
{"biological_target": "human growth hormone secretagogue receptor (hGHS-R1a) (Homo sapiens, UniProt Q92847)", "sequence (Q92847 whole entry)": "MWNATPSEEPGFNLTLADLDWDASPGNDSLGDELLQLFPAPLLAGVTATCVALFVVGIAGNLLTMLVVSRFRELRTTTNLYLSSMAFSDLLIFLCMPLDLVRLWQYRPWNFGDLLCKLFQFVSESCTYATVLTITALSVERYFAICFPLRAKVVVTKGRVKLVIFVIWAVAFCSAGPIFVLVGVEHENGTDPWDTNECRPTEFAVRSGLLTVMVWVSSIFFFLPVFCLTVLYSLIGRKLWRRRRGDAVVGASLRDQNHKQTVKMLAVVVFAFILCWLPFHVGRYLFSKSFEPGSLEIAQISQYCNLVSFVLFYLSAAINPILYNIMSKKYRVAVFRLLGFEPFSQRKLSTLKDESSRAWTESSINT", "test": "Competitive radioligand binding assay (ghrelin receptor), standard method A", "conditions": "not given", "from_the_text": "(§1) A competitive binding assay at the human growth hormone secretagogue receptor (hGHS-R1a) can be carried out analogously to assays described in the literature. (Bednarek, M. A.; et al. J. Med. Chem. 2000, 43, 4370-4376; Palucki, B. L.; et al. Bioorg. Med. Chem. Lett. […], 11, 1955-1957.) See also U.S. patent application Ser. Nos. 11/149,512 and 11/149,731. Binding activity at the gherlin receptor for representative compounds of the present invention is shown in the Examples below.", "units": {"Ki": "nM"}}
{"smiles": "CCC(C)[C@@H]1NCC(C)(C)Oc2ccccc2CCCNC(=O)[C@@H](Cc2ccccc2)NC(=O)[C@@H](C)N(C)C1=O", "note": "(stereo partly drawn) [Compound 923]", "Ki": "≤ 100"}
{"biological_target": "human growth hormone secretagogue receptor (hGHS-R1a) (Homo sapiens, UniProt Q92847)", "test": "Competitive radioligand binding assay (ghrelin receptor), standard method A", "conditions": "binding activity at the human ghrelin receptor, standard method A", "from_the_text": "as §1", "units": {"Ki": "nM"}}
{"smiles": "C[C@@H]1C(=O)N[C@H](Cc2ccc(O)cc2)C(=O)NCCCc2ncccc2OCCN[C@@H](C2CC2)C(=O)N1C", "note": "[Compound 988]", "Ki": "≤ 100"}
{"smiles": "CCC[C@@H]1NC[C@H](C)Oc2ccccc2CCCNC(=O)[C@@H](Cc2ccccc2)NC(=O)[C@@H](C)N(C)C1=O", "note": "[Compound 859]", "Ki": "≤ 500"}
{"smiles": "CC(C)[C@@H]1CN[C@@H](C2CC2)C(=O)N(C)[C@H](C)C(=O)N[C@H](Cc2ccc(Cl)cc2)C(=O)NCCCc2ccc(F)cc2O1", "note": "[Compound 966]", "Ki": "≤ 500"}
{"smiles": "C[C@@H]1CN[C@@H](C2CC2)C(=O)N(C)[C@H](C)C(=O)N[C@H](C(C)(C)C)C(=O)NCCCc2ccccc2O1", "note": "[Compound 1014]", "Ki": "≤ 500"}
{"smiles": "CC(C)CC1NC(=O)C(C)N(C)C(=O)C(C2CC2)NCCOc2cccc(F)c2CCCNC1=O", "note": "(stereo not drawn) [Compound 1111]", "Ki": "≤ 100"}
{"smiles": "CC(C)CC1NC(=O)C(C)N(C)C(=O)C(C2CC2)NCCOC2CCCCC2CCCNC1=O", "note": "(stereo not drawn) [Compound 1106]", "Ki": "≤ 100"}
{"smiles": "C[C@@H]1CN[C@@H](C2CC2)C(=O)N(C)[C@H](C)C(=O)N[C@H](Cc2ccc(Cl)cc2)C(=O)NCCCc2c(F)cccc2O1", "note": "[Compound 938]", "Ki": "≤ 100"}
{"smiles": "C[C@@H]1CN[C@@H](C2CC2)C(=O)N(C)[C@H](C)C(=O)N[C@H](Cc2ccc(C(F)(F)F)cc2)C(=O)NCCCc2ccccc2O1", "note": "[Compound 1038]", "Ki": "≤ 100"}
{"smiles": "CC[C@H](C)[C@@H]1NC[C@@H](C)Oc2c(F)cccc2CCCNC(=O)[C@@H](Cc2ccc(O)cc2)NC(=O)[C@@H](C)N(C)C1=O", "note": "[Compound 994]", "Ki": "≤ 100"}
{"smiles": "CC1C(=O)NC(Cc2ccc(O)c(F)c2)C(=O)NCCCc2ncccc2OCCNC(C2CC2)C(=O)N1C", "note": "(mixture of isomers) [Compound 1078]", "Ki": "≤ 100"}
{"smiles": "CC1CNC(C2CCCCC2)C(=O)N(C)C(C)C(=O)NC(Cc2ccc(O)cc2)C(=O)NCCCc2ccccc2O1", "note": "(stereo not drawn) [Compound 1108]", "Ki": "≤ 1"}
{"smiles": "C[C@@H]1CN[C@@H](C2CC2)C(=O)N(C)[C@H](C)C(=O)N[C@H](Cc2ccc(F)cc2)C(=O)NCCCc2c(F)cccc2O1", "note": "[Compound 937]", "Ki": "≤ 500"}
{"smiles": "CC[C@H](C)[C@@H]1NCCOc2cccnc2CCCNC(=O)[C@@H](Cc2ccc(O)cc2)NC(=O)[C@@H](C)N(C)C1=O", "note": "[Compound 992]", "Ki": "≤ 100"}
{"smiles": "CC(C)[C@@H]1NC[C@@H](C)Oc2ccccc2CCCNC(=O)[C@@H](Cc2ccccc2)NC(=O)[C@@H](C)N(C)C1=O", "note": "[Compound 871]", "Ki": "≤ 500"}
{"smiles": "CCC[C@@H]1NC[C@@H](C)Oc2ccccc2CCCNC(=O)[C@@H](Cc2ccc(F)cc2)NC(=O)[C@@H](C)N(C)C1=O", "note": "[Compound 853]", "Ki": "≤ 100"}
{"smiles": "CC[C@H](C)[C@@H]1NC[C@@H](C)Oc2ccccc2CCCNC(=O)[C@@H](Cc2ccc(O)cc2)NC(=O)[C@@H](C)N(C)C1=O", "note": "[Compound 993]", "Ki": "≤ 100"}
{"smiles": "C[C@@H]1C(=O)N[C@H](Cc2ccccc2)C(=O)NCCCc2cccc3c2OC(CC3)CN[C@@H](C2CC2)C(=O)N1C", "note": "(stereo partly drawn) [Compound 874]", "Ki": "≤ 100"}
{"smiles": "C[C@@H]1CN[C@@H](C2CC2)C(=O)N(C)[C@H](C)C(=O)N[C@H]([C@@H](C)c2ccc(O)cc2)C(=O)NCCCc2ccccc2O1", "note": "[Compound 1068]", "Ki": "≤ 100"}
{"smiles": "CC1CNC(C2CC2)C(=O)N(C)C(C)C(=O)NC(Cc2ccc(F)cc2)C(=O)NCCCC2CCCCC2O1", "note": "(mixture of isomers) [Compound 1052]", "Ki": "≤ 1"}
{"smiles": "C[C@@H]1CN[C@@H](C2CC2)C(=O)N(C)[C@H](C)C(=O)N[C@H](Cc2ccc(Cl)cc2)C(=O)NCCCc2cc(F)c(F)cc2O1", "note": "[Compound 951]", "Ki": "≤ 500"}
{"smiles": "C[C@@H]1CN[C@@H](C2CC2)C(=O)N(C)[C@H](C)C(=O)N[C@H](Cc2ccncc2)C(=O)NCCCc2ccccc2O1", "note": "[Compound 977]", "Ki": "≤ 500"}
{"smiles": "CC(C)[C@@H]1NC[C@@H](C)Oc2ccccc2CCCNC(=O)[C@@H](Cc2ccc(F)cc2)NC(=O)[C@@H](C)N(C)C1=O", "note": "[Compound 857]", "Ki": "≤ 500"}
{"smiles": "C[C@@H]1CN[C@@H](C2CC2)C(=O)N(C)[C@H](C)C(=O)N[C@H](Cc2ccc(F)cc2)C(=O)NCCC(C)(C)c2ccccc2O1", "note": "[Compound 1071]", "Ki": "≤ 500"}
{"smiles": "CCC[C@@H]1NC[C@@H](C)Oc2ccccc2CCCNC(=O)[C@@H](Cc2ccccc2)NC(=O)[C@@H](C)N(C)C1=O", "note": "[Compound 858]", "Ki": "≤ 500"}
{"smiles": "CC(C)C[C@H]1NC(=O)[C@@H](C)N(C)C(=O)[C@H](C2CC2)NCCOc2ccccc2CC[C@H](C)NC1=O", "note": "[Compound 1084]", "Ki": "≤ 100"}
{"smiles": "C[C@@H]1C(=O)N[C@H](Cc2ccc(Cl)cc2)C(=O)NCCCc2cccc3c2OC(CC3)CN[C@@H](C2CC2)C(=O)N1C", "note": "(stereo partly drawn) [Compound 947]", "Ki": "≤ 10"}
{"smiles": "C[C@@H]1CN[C@@H](C2CC2)C(=O)N(C)[C@H](C)C(=O)N[C@H](Cc2ccc(F)cc2)C(=O)NCCCc2cccc(Cl)c2O1", "note": "[Compound 1007]", "Ki": "≤ 100"}
{"smiles": "CC[C@H](C)[C@@H]1NC[C@@H](C)Oc2cccnc2CCCNC(=O)[C@@H](Cc2ccc(O)cc2)NC(=O)[C@@H](C)N(C)C1=O", "note": "[Compound 1026]", "Ki": "≤ 100"}
{"smiles": "C[C@@H]1CN[C@@H](C2CC2)C(=O)N(C)[C@H](C)C(=O)N[C@H](Cc2ccc(O)cc2)C(=O)NCCCc2ncccc2O1", "note": "[Compound 1023]", "Ki": "≤ 100"}
{"smiles": "CC[C@H](C)[C@@H]1NC[C@@H](C)Oc2c(F)cccc2CCCNC(=O)[C@@H](CC(C)C)NC(=O)[C@@H](C)N(C)C1=O", "note": "[Compound 981]", "Ki": "≤ 10"}
{"smiles": "CC(=O)Oc1ccc(CC2NC(=O)C(C)N(C)C(=O)C(C3CC3)NCC(C)Oc3ccccc3CCCNC2=O)cc1F", "note": "(mixture of isomers) [Compound 1065]", "Ki": "≤ 100"}
{"smiles": "COc1ccc(C[C@H]2NC(=O)[C@@H](C)N(C)C(=O)[C@H](C3CC3)NC[C@@H](C)Oc3ccccc3CCCNC2=O)cc1", "note": "[Compound 867]", "Ki": "≤ 100"}
{"smiles": "CC[C@H](C)[C@@H]1NC[C@@H](C)Oc2ccccc2CCCNC(=O)[C@@H](Cc2ccccc2)NC(=O)[C@@H](CO)N(C)C1=O", "note": "[Compound 939]", "Ki": "≤ 100"}
{"smiles": "CC(C)C[C@H]1NC(=O)[C@@H](C)N(C)C(=O)[C@H](C2CC2)NCCOc2cccnc2CCCNC1=O", "note": "[Compound 986]", "Ki": "> 500"}
{"smiles": "CC[C@H](C)[C@@H]1NC[C@@H](C)Oc2ccccc2CCCNC(=O)[C@@H](Cc2ccc(Cl)cc2)NC(=O)[C@@H](C)N(C)C1=O", "note": "[Compound 878]", "Ki": "≤ 100"}
{"smiles": "CC1C(=O)NC(Cc2ccc(O)cc2)C(=O)NCCCc2c(F)cccc2OCCNC(C2CC2)C(=O)N1C", "note": "(stereo not drawn) [Compound 1110]", "Ki": "≤ 100"}
{"smiles": "C[C@@H]1CN[C@@H](C2CC2)C(=O)N(C)[C@H](C)C(=O)N[C@H]([C@@H](C)c2ccc(O)cc2)C(=O)NCCCc2ncccc2O1", "note": "[Compound 1082]", "Ki": "≤ 500"}
{"smiles": "C[C@@H]1CN[C@@H](C2CC2)C(=O)N(C)[C@H](C)C(=O)N[C@H](C(C)(C)c2ccc(F)cc2)C(=O)NCCCc2ccccc2O1", "note": "[Compound 1035]", "Ki": "≤ 100"}
{"smiles": "CC1C(=O)NC(Cc2ccc(F)cc2)C(=O)NCCCc2c(F)cccc2OCCNC(C2CC2)C(=O)N1C", "note": "(stereo not drawn) [Compound 1109]", "Ki": "≤ 10"}
{"smiles": "C[C@@H]1CN[C@@H](C2CC2)C(=O)N(C)[C@H](C)C(=O)N[C@H](Cc2ccc(O)cc2)C(=O)NCCCc2cccc(F)c2O1", "note": "[Compound 991]", "Ki": "≤ 100"}
{"smiles": "CC[C@H](C)[C@@H]1NC[C@@H](C)Oc2ccccc2CCCNC(=O)[C@@H](Cc2ccncc2)NC(=O)[C@@H](C)N(C)C1=O", "note": "[Compound 978]", "Ki": "≤ 100"}
{"smiles": "CC[C@H](C)[C@@H]1NC[C@@H](C)Oc2cccnc2CCCNC(=O)[C@@H](Cc2ccccc2)NC(=O)[C@@H](C)N(C)C1=O", "note": "[Compound 1030]", "Ki": "≤ 100"}
{"smiles": "C[C@@H]1C(=O)N[C@H](Cc2ccc(F)cc2)C(=O)NCCCc2cccc3c2OC(CC3)CN[C@@H](C2CC2)C(=O)N1C", "note": "(stereo partly drawn) [Compound 946]", "Ki": "≤ 10"}
{"smiles": "C[C@@H]1C(=O)N[C@H](Cc2ccc(F)cc2)C(=O)NCCCc2ccc(F)c(F)c2OCCN[C@@H](C2CC2)C(=O)N1C", "note": "[Compound 1100]", "Ki": "≤ 10"}
{"smiles": "C[C@@H]1C(=O)N[C@H](Cc2cccs2)C(=O)NCCCc2ncccc2OCCN[C@@H](C2CC2)C(=O)N1C", "note": "[Compound 995]", "Ki": "≤ 100"}
{"smiles": "CC(C)[C@@H]1NC[C@H](C)Oc2ccccc2CCCNC(=O)[C@@H](Cc2ccccc2)NC(=O)[C@@H](C)N(C)C1=O", "note": "[Compound 870]", "Ki": "≤ 500"}
{"smiles": "CC[C@H](C)[C@@H]1NC[C@@H](C)Oc2cc(F)ccc2CCCNC(=O)[C@@H](Cc2ccc(F)cc2)NC(=O)[C@@H](C)N(C)C1=O", "note": "[Compound 856]", "Ki": "≤ 500"}
{"smiles": "C[C@@H]1CN[C@@H](C2CC2)C(=O)N(C)[C@H](C)C(=O)N[C@H](Cc2ccc(Cl)cc2Cl)C(=O)NCCCc2ccccc2O1", "note": "[Compound 1039]", "Ki": "≤ 100"}
{"smiles": "CC[C@H](C)[C@@H]1NC[C@@H](C)Oc2cccnc2CCCNC(=O)[C@@H](Cc2ccc(F)cc2)NC(=O)[C@@H](C)N(C)C1=O", "note": "[Compound 1029]", "Ki": "≤ 10"}
{"smiles": "C[C@@H]1CN[C@@H](C2CC2)C(=O)N(C)[C@H](C)C(=O)N[C@H](Cc2ccccc2)C(=O)NCCCc2ccccc2O1", "note": "[Compound 851]", "Ki": "≤ 100"}
{"smiles": "CC(C)[C@@H]1CN[C@@H](C2CC2)C(=O)N(C)[C@H](C)C(=O)N[C@H](Cc2ccccc2)C(=O)NCCCc2ccc(F)cc2O1", "note": "[Compound 965]", "Ki": "≤ 500"}
{"smiles": "CC[C@H](C)[C@@H]1NCCOc2cnccc2CCCNC(=O)[C@@H](CC(C)C)NC(=O)[C@@H](C)N(C)C1=O", "note": "[Compound 1022]", "Ki": "≤ 500"}
{"smiles": "C[C@@H]1C(=O)N[C@H](Cc2ccccc2)C(=O)NCCCc2ccc(F)cc2OCCN[C@@H](C2CC2)C(=O)N1C", "note": "[Compound 865]", "Ki": "≤ 100"}
{"smiles": "C[C@@H]1C(=O)N[C@H](Cc2cccc(Cl)c2)C(=O)NCCCc2ccccc2OCCN[C@@H](C2CC2)C(=O)N1C", "note": "[Compound 873]", "Ki": "≤ 100"}
{"smiles": "Cc1ccc(C[C@H]2NC(=O)[C@@H](C)N(C)C(=O)[C@H](C3CC3)NCCOc3ccccc3CCCNC2=O)cc1", "note": "[Compound 860]", "Ki": "≤ 10"}
{"smiles": "C[C@@H]1C(=O)N[C@H](Cc2ccc(O)cc2)C(=O)NCCCc2cccc3c2O[C@H](CC3)CN[C@@H](C2CCCCC2)C(=O)N1C", "note": "[Compound 1105]", "Ki": "≤ 1"}
